Experimental data from patent publication US8889688B2, “Piperazines as antimalarial agents” (Actelion Pharmaceuticals Ltd., priority 2011, dated 2014).
Like-named read-outs stand apart in the source and are kept apart here.

Tests used:
[1] = system: P. berghei strain GFP-ANKA; experiment: In vivo antimalarial efficacy study in infected NMRI mice; conditions: Plasmodium berghei; female NMRI mice infected with P. berghei GFP-ANKA; single oral dose of 100 mg/kg 24 h after infection; parasitemia 48 h after drug treatment (day 3); read-out: Activity (inhibition of parasitemia) expressed as a percent relative to the control group
Method: In Vivo Antimalarial Efficacy Studies
In vivo antimalarial activity is assessed for groups of three female NMRI mice (20-22 g) intravenously infected on day 0 with P. berghei strain GFP-ANKA (0.2 mL heparinized saline suspension containing 2×10^7 parasitized erythrocytes). In control mice, parasitemia typically rises to approximately 40% by day 3 after infection. Compounds are formulated in Tween 80/ethanol (7%/3%) usually at concentrations of 10 mg/mL. Compounds are administered in a volume of 10 mL/kg orally as single doses (1×100 mg/kg, 24 h after infection). 48 h after drug treatment (day 3 post-infection), 1 μl tail blood is taken, resuspended in 1 mL PBS buffer and parasitemia determined with a FACScan (Becton Dickinson) by counting 100′000 red blood cells. Activity is calculated as the difference between the mean value of the control group and treated groups expressed as a percent relative to the control group.

[2] = system: erythrocytic stages of P. falciparum NF54; experiment: Plasmodium falciparum in vitro assay, [3H] hypoxanthine incorporation; assay type: cell-based; conditions: Plasmodium falciparum, Erythrocyte, 72 h, P. falciparum NF54 in human red blood cells, 48 h + 24 h incubation
In short: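 Cultures in human red blood cells (2.5% hematocrit, 0.3% parasitemia) were exposed to serially diluted compounds for 48 h at 37° C. under 4% CO2, 3% O2, 93% N2. [3H] hypoxanthine (0.5 μCi) was added for a further 24 h, incorporation counted by scintillation, and IC50 derived from sigmoidal inhibition curves.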

[3] = screening medium with Albumax (5 g/L), read-out: IC50 on NF54 (with Albumax)
[4] = screening medium with human serum (50% final concentration), read-out: IC50 on NF54 (with 50% Serum)

## CC(=O)N1CCN(c2ccc(CN(C(=O)C=Cc3ccc(C(C)C)cc3)[C@@H](Cc3ccccc3)C(=O)N3CCN(Cc4ccc(Cl)cc4)CC3)cc2)CC1 [Example 42, (S)-N-[4-(4-Acetyl-piperazin-1-yl)-benzyl]-N-{1-benzyl-2-[4-(4-chloro-benzyl)-piperazin-1-yl]-2-oxo-ethyl}-3-(4-isopropyl-phenyl)-acrylamide]
[1]
  inhibition in vivo at 100 mg/kg: 97.3%
[2]; [3]
  IC50: 1.7 nM
[2]; [4]
  IC50: 13.7 nM

## CCCOc1ccc(C=CC(=O)N(Cc2ccc(N3CCN(C(C)=O)CC3)cc2)[C@@H](Cc2ccccc2)C(=O)N2CCN(Cc3ccc(C#N)cc3)CC2)cc1 [Example 28, (S)-N-[4-(4-Acetyl-piperazin-1-yl)-benzyl]-N-{1-benzyl-2-[4-(4-cyano-benzyl)-piperazin-1-yl]-2-oxo-ethyl}-3-(4-propoxy-phenyl)-acrylamide]
[1]
  inhibition in vivo at 100 mg/kg: 99.3%
[2]; [3]
  IC50: 1.1 nM
[2]; [4]
  IC50: 3.6 nM

## CCc1ccc(C=CC(=O)N(Cc2ccc(N3CCN(C(C)=O)CC3)cc2)[C@@H](Cc2ccccc2)C(=O)N2CCN(Cc3ccc(N(C)C)cc3)CC2)cc1 [Example 20, (S)-N-[4-(4-Acetyl-piperazin-1-yl)-benzyl]-N-{1-benzyl-2-[4-(4-dimethylamino-benzyl)-piperazin-1-yl]-2-oxo-ethyl}-3-(4-ethyl-phenyl)-acrylamide]
[1]
  inhibition in vivo at 100 mg/kg: 98.5%
[2]; [3]
  IC50: 1.2 nM
[2]; [4]
  IC50: 7.1 nM

## CC(=O)N1CCN(c2ccc(CN(C(=O)C=Cc3ccc(OC(F)F)cc3)[C@@H](Cc3ccccc3)C(=O)N3CCN(Cc4ccc(N(C)C)cc4)CC3)cc2)CC1 [Example 21, (S)-N-[4-(4-Acetyl-piperazin-1-yl)-benzyl]-N-{1-benzyl-2-[4-(4-dimethylamino-benzyl)-piperazin-1-yl]-2-oxo-ethyl}-3-(4-difluoromethoxy-phenyl)-acrylamide]
[1]
  inhibition in vivo at 100 mg/kg: 98.8%
[2]; [3]
  IC50: 1.9 nM
[2]; [4]
  IC50: 7 nM

## CC(=O)N1CCN(c2ccc(CN(C(=O)C=Cc3ccc(C(C)(C)C)cc3)[C@@H](Cc3ccccc3)C(=O)N3CCN(Cc4ccc(N(C)C)cc4)CC3)cc2)CC1 [Example 22, (S)-N-[4-(4-Acetyl-piperazin-1-yl)-benzyl]-N-{1-benzyl-2-[4-(4-dimethylamino-benzyl)-piperazin-1-yl]-2-oxo-ethyl}-3-(4-tert-butyl-phenyl)-acrylamide]
[1]
  inhibition in vivo at 100 mg/kg: 99.3%
[2]; [3]
  IC50: 1.3 nM
[2]; [4]
  IC50: 10.9 nM

## CCCOc1ccc(C=CC(=O)N(Cc2ccc(N3CCN(C(C)=O)CC3)cc2)[C@@H](Cc2ccccc2)C(=O)N2CCN(Cc3ccc(Cl)cc3)CC2)cc1 [Example 38, (S)-N-[4-(4-Acetyl-piperazin-1-yl)-benzyl]-N-{1-benzyl-2-[4-(4-chloro-benzyl)-piperazin-1-yl]-2-oxo-ethyl}-3-(4-propoxy-phenyl)-acrylamide]
[1]
  inhibition in vivo at 100 mg/kg: 98.5%
[2]; [3]
  IC50: 1.8 nM
[2]; [4]
  IC50: 9 nM

## CC(=O)N1CCN(c2ccc(CN(C(=O)C=Cc3ccc(C(C)(C)C)cc3)[C@@H](Cc3ccccc3)C(=O)N3CCN(Cc4ccc(C#N)cc4)CC3)cc2)CC1 [Example 34, (S)-N-[4-(4-Acetyl-piperazin-1-yl)-benzyl]-N-{1-benzyl-2-[4-(4-cyano-benzyl)-piperazin-1-yl]-2-oxo-ethyl}-3-(4-tert-butyl-phenyl)-acrylamide]
[1]
  inhibition in vivo at 100 mg/kg: 99.2%
[2]; [3]
  IC50: 0.5 nM
[2]; [4]
  IC50: 3.8 nM

## CCc1ccc(C=CC(=O)N(Cc2ccc(N3CCN(C(C)=O)CC3)cc2)[C@@H](Cc2ccccc2)C(=O)N2CCN(Cc3ccc(N(C)CCO)cc3)CC2)cc1 [Example 59, (S)-N-[4-(4-Acetyl-piperazin-1-yl)-benzyl]-N-[1-benzyl-2-(4-{4-[(2-hydroxy-ethyl)-methyl-amino]-benzyl}-piperazin-1-yl)-2-oxo-ethyl]-3-(4-ethyl-phenyl)-acrylamide]
[1]
  inhibition in vivo at 100 mg/kg: 96.5%
[2]; [3]
  IC50: 1.6 nM
[2]; [4]
  IC50: 3.8 nM

## CC(=O)N1CCN(c2ccc(CN(C(=O)C=Cc3ccc(OC(F)(F)F)cc3)[C@@H](Cc3ccccc3)C(=O)N3CCN(Cc4ccc(C#N)cc4)CC3)cc2)CC1 [Example 33, (S)-N-[4-(4-Acetyl-piperazin-1-yl)-benzyl]-N-{1-benzyl-2-[4-(4-cyano-benzyl)-piperazin-1-yl]-2-oxo-ethyl}-3-(4-trifluoromethoxy-phenyl)-acrylamide]
[1]
  inhibition in vivo at 100 mg/kg: 97.4%
[2]; [3]
  IC50: 3.3 nM
[2]; [4]
  IC50: 10.9 nM

## CCOc1ccc(C=CC(=O)N(Cc2ccc(N3CCN(C(C)=O)CC3)cc2)[C@@H](Cc2ccccc2)C(=O)N2CCN(Cc3ccc(N(C)C)cc3)CC2)cc1 [Example 15, (S)-N-[4-(4-Acetyl-piperazin-1-yl)-benzyl]-N-{1-benzyl-2-[4-(4-dimethylamino-benzyl)-piperazin-1-yl]-2-oxo-ethyl}-3-(4-ethoxy-phenyl)-acrylamide]
[1]
  inhibition in vivo at 100 mg/kg: 99%
[2]; [3]
  IC50: 1.7 nM
[2]; [4]
  IC50: 6.8 nM

## CCc1ccc(C=CC(=O)N(Cc2ccc(N3CCN(C(C)=O)CC3)cc2)[C@@H](Cc2ccccc2)C(=O)N2CCN(Cc3ccc(C#N)cc3)CC2)cc1 [Example 30, (S)-N-[4-(4-Acetyl-piperazin-1-yl)-benzyl]-N-{1-benzyl-2-[4-(4-cyano-benzyl)-piperazin-1-yl]-2-oxo-ethyl}-3-(4-ethyl-phenyl)-acrylamide]
[1]
  inhibition in vivo at 100 mg/kg: 97.7%
[2]; [3]
  IC50: 0.9 nM
[2]; [4]
  IC50: 5 nM

## CC(=O)N1CCN(c2ccc(CN(C(=O)C=Cc3ccc(OC(C)C)cc3)[C@@H](Cc3ccccc3)C(=O)N3CCN(Cc4ccc(Cl)cc4)CC3)cc2)CC1 [Example 39, (S)-N-[4-(4-Acetyl-piperazin-1-yl)-benzyl]-N-{1-benzyl-2-[4-(4-chloro-benzyl)-piperazin-1-yl]-2-oxo-ethyl}-3-(4-isopropoxy-phenyl)-acrylamide]
[1]
  inhibition in vivo at 100 mg/kg: 99%
[2]; [3]
  IC50: 2.3 nM
[2]; [4]
  IC50: 11 nM

## CCOc1ccc(C=CC(=O)N(Cc2ccc(N3CCN(C(C)=O)CC3)cc2)[C@@H](Cc2ccccc2)C(=O)N2CCN(Cc3ccc(N(C)CCO)cc3)CC2)cn1 [Example 53, (S)-N-[4-(4-Acetyl-piperazin-1-yl)-benzyl]-N-[1-benzyl-2-(4-{4-[(2-hydroxy-ethyl)-methyl-amino]-benzyl}-piperazin-1-yl)-2-oxo-ethyl]-3-(6-ethoxy-pyridin-3-yl)-acrylamide]
[1]
  inhibition in vivo at 100 mg/kg: 52.3%
[2]; [3]
  IC50: 4.3 nM
[2]; [4]
  IC50: 12.4 nM

## CCOc1ccc(C=CC(=O)N(Cc2ccc(N3CCN(C(C)=O)CC3)cc2)[C@@H](Cc2ccccc2)C(=O)N2CCN(Cc3ccc(N(C)CCO)cc3)CC2)cc1 [Example 54, (S)-N-[4-(4-Acetyl-piperazin-1-yl)-benzyl]-N-[1-benzyl-2-(4-{4-[(2-hydroxy-ethyl)-methyl-amino]-benzyl}-piperazin-1-yl)-2-oxo-ethyl]-3-(4-ethoxy-phenyl)-acrylamide]
[1]
  inhibition in vivo at 100 mg/kg: 93.7%
[2]; [3]
  IC50: 1.6 nM
[2]; [4]
  IC50: 5.9 nM

## CCc1ccc(C=CC(=O)N(Cc2ccc(N3CCN(C(C)=O)CC3)cc2)[C@@H](Cc2ccccc2)C(=O)N2CCN(Cc3ccccc3)CC2)cc1 [Example 2, (S)-N-[4-(4-Acetyl-piperazin-1-yl)-benzyl]-N-[1-benzyl-2-(4-benzyl-piperazin-1-yl)-2-oxo-ethyl]-3-(4-ethyl-phenyl)-acrylamide]
[1]
  inhibition in vivo at 100 mg/kg: 94.1%
[2]; [3]
  IC50: 2 nM
[2]; [4]
  IC50: 10 nM

## CC(=O)N1CCN(c2ccc(CN(C(=O)C=Cc3ccc(OC(C)C)cc3)[C@@H](Cc3ccccc3)C(=O)N3CCN(Cc4ccccc4)CC3)cc2)CC1 [Example 9, (S)-N-[4-(4-Acetyl-piperazin-1-yl)-benzyl]-N-[1-benzyl-2-(4-benzyl-piperazin-1-yl)-2-oxo-ethyl]-3-(4-isopropoxy-phenyl)-acrylamide]
[1]
  inhibition in vivo at 100 mg/kg: 99.1%
[2]; [3]
  IC50: 2.4 nM
[2]; [4]
  IC50: 7.3 nM

## CC(=O)N1CCN(c2ccc(CN(C(=O)C=Cc3ccc(S(C)(=O)=O)cc3)[C@@H](Cc3ccccc3)C(=O)N3CCN(Cc4ccc(Cl)cc4)CC3)cc2)CC1 [Example 36, (S)-N-[4-(4-Acetyl-piperazin-1-yl)-benzyl]-N-{1-benzyl-2-[4-(4-chloro-benzyl)-piperazin-1-yl]-2-oxo-ethyl}-3-(4-methanesulfonyl-phenyl)-acrylamide]
[1]
  inhibition in vivo at 100 mg/kg: 46.8%
[2]; [3]
  IC50: 7.8 nM
[2]; [4]
  IC50: 28 nM

## COC(=O)c1ccc(C=CC(=O)N(Cc2ccc(N3CCN(C(C)=O)CC3)cc2)[C@@H](Cc2ccccc2)C(=O)N2CCN(Cc3ccccc3)CC2)cc1 [Example 5, (S)-4-(2-{[4-(4-Acetyl-piperazin-1-yl)-benzyl]-[1-benzyl-2-(4-benzyl-piperazin-1-yl)-2-oxo-ethyl]-carbamoyl}-vinyl)-benzoic acid methyl ester]
[1]
  inhibition in vivo at 100 mg/kg: < 40%
[2]; [3]
  IC50: 3.9 nM
[2]; [4]
  IC50: 12 nM
